Data published in EPA's ToxValDB 9.5 (doi:10.2903/j.efsa.2009.258r).

Key:
Aphidius rhopalosiphi = experiment: LR50; higher = less toxic; conditions: not reported; mortality
Daphnia magna = conditions: chronic/long-term; duration: 21 days; reproduction
Folsomia candida = conditions: chronic/long-term; duration: 28 days
Canidae = conditions: chronic; duration: 1 years; oral; Dog Other; clinical chemistry
Apis mellifera = conditions: acute; oral; unspecified; mortality
Oryctolagus sp. = conditions: reproduction developmental; food consumption
Tagia sp. = conditions: acute; duration: 14 days; mortality
Pimephales promelas = conditions: chronic/long-term; duration: 28 days; growth
Bibionidae = conditions: chronic/long-term; duration: 28 days; reproduction

O=C(Cc1ccccc1)N/C(=N\OCC1CC1)c1c(C(F)(F)F)ccc(F)c1F [Cyflufenamid]
LR50 (Aphidius rhopalosiphi): 50 g/ha | LC50 (Colinus virginianus; acute, oral, diet, mortality): > 743 mg/kg-day | LD50 (Colinus virginianus; acute, oral, mortality): > 2000 mg/kg-day | NOEC (Colinus virginianus; reproduction developmental): 98 mg/kg-day | NOEC (Daphnia magna): 0.0406 mg/L | NOEC (Folsomia candida): > 0.0178 mg/kg | NOAEL (Canidae): 4.1 mg/kg-day | LD50 (Apis mellifera): > 100 µg/piece | NOAEL (Oryctolagus sp.): 5 mg/kg-day | LC50 (Tagia sp.): > 500 mg/kg | LD50 (Rattus norvegicus; acute, oral, mortality): > 5000 mg/kg-day | NOAEL (Rattus norvegicus; chronic, duration: 2 years, F, histopathology: nonneoplastic): 4.4 mg/kg-day | NOAEL (Rattus norvegicus; chronic, duration: 2 years, M, histopathology: nonneoplastic): 4.4 mg/kg-day | NOEC (Rattus norvegicus; reproduction developmental, mortality): 800 mg/kg-day | NOAEL (Rattus norvegicus; reproduction developmental, reproduction): 57 mg/kg-day | NOEC (Pimephales promelas): 0.024 mg/L | NOEC (Bibionidae): 1 mg/L
